Measured values as given in PubChem BioAssay AID1963832 (Molecular Pharmacology Branch, DTP, NCI, 2024).

Test system: 885724-159-R-J1-PDC complex spheroid viability
Test: Anticancer human tumor 885724-159-R-J1-PDC patient-derived pancreatic adenocarcinoma cell line growth inhibition [POLQ]
Details: for IC50: curve of first compound; for viability, T/C: stronger effect = lower value
Procedure, shortened: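 Patient-derived tumour cells were co-cultured with HUVEC and mesenchymal stem cells as multicellular spheroids at 37 °C. They were treated with POLQ inhibitors (novobiocin, ART-558, RP6685) alone or combined with other agents. Top concentrations were at or near clinical Cmax (otherwise 10 microM; SN-38 at 1 microM), decreasing in half-log steps.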

[1] = second compound 0.0316 µM, first compound 0.0316 µM
[2] = second compound 0.0316 µM, first compound 0.1 µM
[3] = second compound 0.0316 µM, first compound 0.316 µM
[4] = second compound 0.0316 µM, first compound 1 µM
[5] = second compound 0.0316 µM, first compound 3.16 µM
[6] = second compound 0.0316 µM, first compound 10 µM
[7] = second compound 0.1 µM, first compound 0.0316 µM
[8] = second compound 0.1 µM, first compound 0.1 µM
[9] = second compound 0.1 µM, first compound 0.316 µM
[10] = second compound 0.1 µM, first compound 1 µM
[11] = second compound 0.1 µM, first compound 3.16 µM
[12] = second compound 0.1 µM, first compound 10 µM
[13] = second compound 0.316 µM, first compound 0.0316 µM
[14] = second compound 0.316 µM, first compound 0.1 µM
[15] = second compound 0.316 µM, first compound 0.316 µM
[16] = second compound 0.316 µM, first compound 1 µM
[17] = second compound 0.316 µM, first compound 3.16 µM
[18] = second compound 0.316 µM, first compound 10 µM
[19] = second compound 1 µM, first compound 0.0316 µM
[20] = second compound 1 µM, first compound 0.1 µM
[21] = second compound 1 µM, first compound 0.316 µM
[22] = second compound 1 µM, first compound 1 µM
[23] = second compound 1 µM, first compound 3.16 µM
[24] = second compound 1 µM, first compound 10 µM
[25] = second compound 3.16 µM, first compound 0.0316 µM
[26] = second compound 3.16 µM, first compound 0.1 µM
[27] = second compound 3.16 µM, first compound 0.316 µM
[28] = second compound 3.16 µM, first compound 1 µM
[29] = second compound 3.16 µM, first compound 3.16 µM
[30] = second compound 3.16 µM, first compound 10 µM
[31] = second compound 10 µM, first compound 0.0316 µM
[32] = second compound 10 µM, first compound 0.1 µM
[33] = second compound 10 µM, first compound 0.316 µM
[34] = second compound 10 µM, first compound 1 µM
[35] = second compound 10 µM, first compound 3.16 µM
[36] = second compound 10 µM, first compound 10 µM
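Further: spheroids exposed to compounds for 7 days.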

COc1cc(C2c3cc4c(cc3C(OC3OC5COC(C)OC5C(O)C3O)C3COC(=O)C23)OCO4)cc(OC)c1O (stereo unspecified) + COC1C(OC(N)=O)C(O)C(Oc2ccc3c(O)c(NC(=O)c4ccc(O)c(CC=C(C)C)c4)c(=O)oc3c2C)OC1(C)C
IC50 (second compound 0.0316 µM): 5.34 µM | IC50 (second compound 0.1 µM): 3.9 µM | IC50 (second compound 0.316 µM): 4 µM | IC50 (second compound 1 µM): 4.58 µM | IC50 (second compound 3.16 µM): 5.93 µM | IC50 (second compound 10 µM): 3.8 µM | viability, T/C [1]: 96.7% | viability, T/C [2]: 81.8% | viability, T/C [3]: 67.8% | viability, T/C [4]: 61.6% | viability, T/C [5]: 56.2% | viability, T/C [6]: 44.4% | viability, T/C [7]: 93.7% | viability, T/C [8]: 85.5% | viability, T/C [9]: 72% | viability, T/C [10]: 59.2% | viability, T/C [11]: 53.8% | viability, T/C [12]: 43.1% | viability, T/C [13]: 92% | viability, T/C [14]: 84.4% | viability, T/C [15]: 75.7% | viability, T/C [16]: 59.8% | viability, T/C [17]: 54% | viability, T/C [18]: 41.9% | viability, T/C [19]: 100% | viability, T/C [20]: 87.5% | viability, T/C [21]: 71.3% | viability, T/C [22]: 58.9% | viability, T/C [23]: 58.2% | viability, T/C [24]: 42.3% | viability, T/C [25]: 92.5% | viability, T/C [26]: 81.4% | viability, T/C [27]: 69.8% | viability, T/C [28]: 64.1% | viability, T/C [29]: 53.5% | viability, T/C [30]: 46.5% | viability, T/C [31]: 90.6% | viability, T/C [32]: 80% | viability, T/C [33]: 64.7% | viability, T/C [34]: 60.5% | viability, T/C [35]: 54.4% | viability, T/C [36]: 42.1%

COc1cccc2c1C(=O)c1c(O)c3c(c(O)c1C2=O)CC(O)(C(=O)CO)CC3OC1CC(N)C(O)C(C)O1 (stereo unspecified) + COC1C(OC(N)=O)C(O)C(Oc2ccc3c(O)c(NC(=O)c4ccc(O)c(CC=C(C)C)c4)c(=O)oc3c2C)OC1(C)C
IC50 (second compound 0.0316 µM): 0.208 µM | IC50 (second compound 0.1 µM): 0.204 µM | IC50 (second compound 0.316 µM): 0.201 µM | IC50 (second compound 1 µM): 0.192 µM | IC50 (second compound 3.16 µM): 0.197 µM | IC50 (second compound 10 µM): 0.196 µM | viability, T/C [1]: 71.6% | viability, T/C [2]: 91.5% | viability, T/C [3]: 31.9% | viability, T/C [4]: 11.6% | viability, T/C [5]: 6% | viability, T/C [6]: 7.47% | viability, T/C [7]: 71% | viability, T/C [8]: 89.4% | viability, T/C [9]: 31.5% | viability, T/C [10]: 10.3% | viability, T/C [11]: 5.36% | viability, T/C [12]: 7.37% | viability, T/C [13]: 71% | viability, T/C [14]: 93.2% | viability, T/C [15]: 29% | viability, T/C [16]: 9.53% | viability, T/C [17]: 5.31% | viability, T/C [18]: 7.84% | viability, T/C [19]: 65% | viability, T/C [20]: 90.5% | viability, T/C [21]: 28.9% | viability, T/C [22]: 10.3% | viability, T/C [23]: 5.98% | viability, T/C [24]: 7.87% | viability, T/C [25]: 69.5% | viability, T/C [26]: 92% | viability, T/C [27]: 28.7% | viability, T/C [28]: 7.45% | viability, T/C [29]: 6% | viability, T/C [30]: 7.69% | viability, T/C [31]: 64.2% | viability, T/C [32]: 85.7% | viability, T/C [33]: 32.2% | viability, T/C [34]: 7.9% | viability, T/C [35]: 6.39% | viability, T/C [36]: 7.8%

O=c1[nH]cc(F)c(=O)[nH]1 + COC1C(OC(N)=O)C(O)C(Oc2ccc3c(O)c(NC(=O)c4ccc(O)c(CC=C(C)C)c4)c(=O)oc3c2C)OC1(C)C
IC50 (second compound 0.0316 µM): > 10 µM | IC50 (second compound 0.1 µM): > 10 µM | IC50 (second compound 0.316 µM): > 10 µM | IC50 (second compound 1 µM): > 10 µM | IC50 (second compound 3.16 µM): > 10 µM | IC50 (second compound 10 µM): > 10 µM | viability, T/C [1]: 103% | viability, T/C [2]: 104% | viability, T/C [3]: 91.6% | viability, T/C [4]: 95.6% | viability, T/C [5]: 89.4% | viability, T/C [6]: 80.5% | viability, T/C [7]: 117% | viability, T/C [8]: 96.3% | viability, T/C [9]: 101% | viability, T/C [10]: 97% | viability, T/C [11]: 88.4% | viability, T/C [12]: 67.5% | viability, T/C [13]: 99% | viability, T/C [14]: 91.9% | viability, T/C [15]: 103% | viability, T/C [16]: 93.8% | viability, T/C [17]: 80.3% | viability, T/C [18]: 73.6% | viability, T/C [19]: 119% | viability, T/C [20]: 108% | viability, T/C [21]: 100% | viability, T/C [22]: 92.7% | viability, T/C [23]: 89.6% | viability, T/C [24]: 71.8% | viability, T/C [25]: 104% | viability, T/C [26]: 94.1% | viability, T/C [27]: 92.3% | viability, T/C [28]: 98.8% | viability, T/C [29]: 83.5% | viability, T/C [30]: 73.8% | viability, T/C [31]: 113% | viability, T/C [32]: 86.8% | viability, T/C [33]: 92.9% | viability, T/C [34]: 96.4% | viability, T/C [35]: 83.2% | viability, T/C [36]: 70.8%
